# Measurements published in a melting point compilation (Tetko et al.; mined from patent text by program, amines drawn as free bases though some values may be those of a salt).
row,melting point,SMILES
1,227 to 228 °C,CCOC(=O)C1=CC2(CCC1S(=O)(=O)Nc1ccc(F)cc1Cl)OC1COCC1O2 (stereo not given)
2,142 °C,O[C@@H]1CN=C(c2ccccc2F)O[C@H]1c1ccccc1 (racemic)
3,202 to 205 °C,Cc1cc2c(cc1C#Cc1ccccc1)NC(=O)CC(c1cccc(-c3nccn3C)c1)=N2
4,67 to 68 °C,COC(=O)CCC#Cc1cc(F)c(Cl)cc1N
5,170 to 171 °C,CC(C)CCC(=O)NC(C)(Cc1c[nH]c2ccccc12)C(=O)NC(Cc1ccccc1)C(N)=O (racemic)
6,81 to 83 °C,CN1C(=O)CC(C)(C)c2cc(C3(C)OCCO3)ccc21
7,157 to 158 °C,O=C1Nc2ncc(Br)cc2C1(Br)Br
8,137 to 140 °C,CC(C)[C@](O)(CCc1ccc(O)cc1)CC(=O)O
9,287 to 289 °C,CC1=Nc2c(Br)cc(Br)cc2S(=O)(=O)N1
10,77 °C,COc1ccc(Nc2nc(NCCN)nc(NC3CCCCCC3)n2)cc1Cl
11,154 to 158 °C,O=C(O)C1Oc2ccccc2C2(CC2)c2cccc(Cl)c2O1 (stereo not given)
12,159 to 160 °C,COc1cc(OCCN2CCCC2)cc(-c2nc3cc(OC)cc(OC)c3c(=O)[nH]2)c1
13,98 to 99 °C,COC1CCC(=O)N1S(=O)(=O)C=Cc1ccccc1 (stereo not given)
14,157 to 158 °C,COC(=O)CCc1oc(Sc2ccc(O)cc2)nc1-c1ccccc1
15,197 °C,Fc1ccc(Cn2c(NCCN3CCC(Nc4nc5ccccc5n4Cc4ccc(F)cc4)CC3)nc3ccccc32)cc1
16,95 to 99 °C,CC(C(=O)O)c1c(-c2ccccc2)nn(-c2ccccc2)c1-c1ccccc1 (stereo not given)
17,40 to 42 °C,Cc1cccc(OCC(=O)NCCO[N+](=O)[O-])c1
18,119 to 121 °C,CCOC(=O)C(=O)c1ccc2c(c1)CCCO2

row,melting point,SMILES
1,242 °C,Cn1c2c(c3cccc(F)c31)C(=O)NCC2
2,74 to 75 °C,Cc1nc(N)ccc1Cl
3,132 to 134 °C,CCN1C(=O)C(C)(C)C(=O)N(C)c2cc(CN(CCn3ccc4oc(C(F)(F)F)cc4c3=O)Cc3cccnc3C)ccc21
4,209 to 211 °C,CCCCn1c(=O)n(CCC)c(=O)c2c(N)n[nH]c21
5,111 to 112 °C,COc1ccc(-c2c3cccc(C(F)(F)F)c3nn2CC(C)C)c(OC)c1
6,285 to 286 °C,CC(C)(C)c1cc(Cl)n2ncnc2n1
7,122 to 124 °C,COC(=O)c1cc(Br)c(OC)cc1O
8,170 to 172 °C,CC1(C)Cc2cc(C(=O)O)sc2C1
9,178 to 180 °C,CCc1noc(C)c1-c1[nH]c2ccccc2c1C(O)CN(C)C (stereo not given)
10,125 to 127 °C,COc1ccc2c(c1)C1=C(SCC3(CCN(C(=O)c4cccc(Cl)c4)CC3)O1)C(=O)C2=O
11,274 to 275 °C,CCCc1c(/C=C/c2ccc(C)cc2)nc2ccc(C(=O)O)cn2c1=O
12,227 to 229 °C,COc1ccc(C(=O)c2c(N)sc3c2CCCC3)c2ccccc12
13,150 to 152 °C,CSc1cc(C(C)=O)ccc1OCCCN1CCC(c2noc3cc(F)ccc23)CC1
14,192 to 193 °C,COc1ccc(C2c3ccccc3C(c3ccc(OC)cc3)C2C(=O)O)cc1 (stereo not given)
15,118 to 120 °C,CCC(C)NCc1nc(-c2ccc(OC)c(OC)c2)c2cc(OC)c(OC)cc2n1 (stereo not given)
16,79 to 80 °C,Cc1ccccc1SN(C(=O)NC(=O)c1ccccc1Cl)c1ccc(OC(F)(F)F)cc1
17,69 to 70 °C,CC(C)(C)n1nnc(Cc2ccc(Br)cc2)n1

# Further lines, the compound ahead of its results:
row,SMILES,melting point
1,COc1ccc(-c2nc(N)ncc2-c2ccc(=O)n(C)n2)cc1,259 °C
2,CCc1c(NC(=O)c2ccc(Br)cc2)ccc2cc(CN3CCCC3)cnc12,230 to 231 °C
3,O=C(O)C(Cc1ccccc1)Oc1ccc(-c2ccc(-c3c(Cc4ccc(O)c(O)c4)sc4ccccc34)cc2)cc1 (stereo not given),108 to 110 °C
4,CCC(C)(C)OC(=O)NC(C)(Cc1c[nH]c2ccccc12)C(=O)NCCc1cccs1 (stereo not given),95 to 98 °C
5,c1ccc2c(c1)c1c(N3CCCC3)nc(N3CCCC3)nc1n2CCn1ccnc1,181 to 183 °C
6,CC(=O)N(C)CC#CCn1ccnc1,113 to 115 °C
7,COCOc1cc(Cl)ccc1-c1cc(-c2cccc(C(=O)NCCCn3ccnc3)c2)c(C#N)c(NC(=O)c2ccccc2OC)n1,100 to 101 °C
8,CC=CCN(C)c1ncnc2c1ncn2C1OC(CO)C(O)C1O (stereo not given),160 to 162 °C
9,CC1(C)CC(O)C(C)(C)c2cc(CC=Cc3ccccc3C#N)ccc21 (stereo not given),163 to 165 °C
10,CCOC(=O)CNC(=O)CCc1cc(Cl)ccc1C(=O)CCCNC(=O)CCCNC(C)=O,94 to 96 °C
11,CC(C)(C)c1ccc(N(c2ccc(-c3ccc(Nc4ccccc4)cc3)cc2)c2ccc(C(C)(C)C)cc2)cc1,161 to 162 °C
12,O=C(NC1(C(=O)O)CCOCC1)OCc1ccccc1,110 to 115 °C
13,CCOC(=O)C1n2c3ccccc3c3c4c(c5c6ccccc6n(c5c32)CS1(=O)=O)C(=O)NC4=O (stereo not given),298 to 300 °C
14,Cc1ccnc(Cn2ccnc2)c1O,170 to 172 °C
15,O=C(CC(=S)N1CCC[C@H]1C(=O)O)c1ccccc1,151 to 152 °C
16,COc1cccc(C2(CNC(=O)Nc3c(C(C)C)cc(N)cc3C(C)C)CCN(c3ccccc3O)CC2)c1,207 to 208 °C
17,CN(C1=NCCO1)c1ccc(C(O)(C(F)(F)F)C(F)(F)F)cc1,188 to 190 °C
18,O=C(CCl)NC(C(=O)O)c1ccc2c(c1)CCS2 (stereo not given),173 to 175 °C
19,NC(=O)c1[nH]c2cccnc2c1Sc1ccccc1,251 °C
20,CCn1c(=O)c2[nH]c(/C=C/c3ccc(F)c(Br)c3)nc2n(CC)c1=O,> 300 °C
21,COc1ccc(-c2c(O)c3ccccc3[nH]c2=O)cc1OC,312 to 314 °C
22,CCCCCCCCCCc1ccc2cc(SC)c(O)cc2c1,64.4 to 65.4 °C

row,SMILES,melting point
1,Cc1noc(NS(=O)(=O)c2ccccc2-c2ccc(-c3ncco3)cc2CN2CCN(C(C)C)C2=O)c1C,105 to 110 °C
2,C=CCOn1c(=O)c2cc(F)c(N3CCCC3)cc2n(Cc2ccccc2)c1=O,148 to 150 °C
3,COc1ccc(-c2ccc(Cl)nn2)c(OCC(O)CNC(C)C)c1 (stereo not given),128 to 129 °C
4,OC(CSC1CCCCC1)CSC1CCCCC1,85.5 to 88.5 °C
5,COc1nc(C)cnc1NS(=O)(=O)c1cccnc1-c1ccc(I)cc1,180 to 183 °C
6,COc1c(N2CCC(n3cc(C)nn3)C2)c(F)c(N)c2c(=O)c(C(=O)O)cn(C3CC3)c12 (stereo not given),256 °C
7,CC=CCONC(C)=C1C(=O)CC(CCSc2ccc(C(F)(F)F)cc2)CC1=O (stereo not given),72 to 73 °C
8,COc1cc(OC)nc(Oc2cc(C)nc(-c3ccccc3)c2C(=O)O)n1,277 to 284 °C
9,COc1ccc(SCCCC(=O)O)cc1OC,78 °C
10,CCCCn1c(=O)c2nn(S(=O)(=O)c3cccc(C(F)(F)F)c3)cc2n(CCCC)c1=O,163 to 165 °C
11,O=S(=O)(c1ccc(Cl)cc1)C(c1ccc(CN2CCOCC2)cn1)c1cc(F)ccc1F (stereo not given),120 to 121 °C
12,NC(=S)c1c(F)c(F)c(F)c(F)c1F,92 to 93 °C
13,CC1(COc2ccc(Cc3nnn[nH]3)cc2)CCCCC1O (stereo not given),103 to 108 °C
14,Cc1cc(Cl)cc(C(=O)NC(C)C2CC2)c1NC(=O)c1cc(Br)nn1-c1ccccc1Cl (stereo not given),180 to 181 °C
15,O=C(c1ccc(O)cc1)c1ccc(Cl)cc1Cl,140 °C
16,CC(C)(C)NC(=O)c1cc(Cl)ccc1N,126 to 127 °C
17,CC(=O)Nc1ccc(OS(N)(=O)=O)cc1,180 to 181 °C
18,N#CC1=C(C2CCCCC2)Nc2n[nH]cc2C1c1cccc2nonc12 (stereo not given),210 °C
19,CCC1CC(=O)c2c(NC(=O)C(=O)O)ccc(C)c21 (stereo not given),176 to 177 °C
20,COC(=O)CCc1ccc(N2CCN(c3ccc(CCN)cc3)C2=O)cc1,> 200 °C
21,Nc1ccn(C2OC(CO)C(O)C2O[N+](=O)[O-])c(=O)n1 (stereo not given),151 to 153 °C
22,Cc1cc(C)cc(S(=O)(=O)c2c(C(=O)O)[nH]c3ccc(Cl)cc23)c1,277 to 278 °C

row,SMILES,melting point
1,CCN1C(=O)CCC(C)(C)c2cc([N+](=O)[O-])ccc21,67 °C
2,Cc1cc(S)c(C)c(C)c1O,86 °C
3,CCc1[nH]n(C2CCCC2)c2nc(-c3cc(OCCN4CCOCC4)cc(OCCN4CCOCC4)c3)nc(=O)c1-2,182 to 183 °C
4,O=c1[nH]c2cc3[nH]c(-c4ccnnc4)nc3cc2o1,330 °C
5,FC(F)(F)C(F)(F)C(F)(F)c1nc(-c2ccc(OCCCn3ccnc3)cc2)no1,60 to 60.5 °C
6,CCOC(=O)Cc1c(C(=O)c2ccc(Cl)cc2)[nH]c2cc(Cl)ccc12,186 to 188 °C
7,N#CCCNC(=O)C1=CC(CF)(CF)Oc2ccc(C#N)cc21,170 to 172 °C
8,CN(C)c1ccc(CNc2nc(Nc3cccc(NS(C)(=O)=O)c3)nc3[nH]cnc23)cc1,138 to 142 °C
9,CCc1nc(N)nc(N)c1N1CCN(c2ccc(C#N)cc2)CC1,> 310 °C
10,N#Cc1ccc(N(Cc2ccc(OS(N)(=O)=O)c(Br)c2)n2cnnc2)cc1-c1cc2ccccc2o1,199 to 200 °C
11,O=C(O)CCCCNS(=O)(=O)c1ccc(N2CCCCCCC2)cc1,149 to 150 °C
12,CCC(=NOC)C1=C(O)CC(c2ccc(NS(C)(=O)=O)cc2)CC1=O (stereo not given),150 to 151 °C
13,COC1OCC[C@@H]1NC(=O)[C@H](CC(C)C)NC(=O)OCc1ccccc1 (stereo not given in full),112 to 113 °C
14,CC(C)C(=O)N[C@H]1CCc2c(c3cc(Br)ccc3n2Cc2ccccc2)C1,177 to 179 °C
15,N#CC1=C(Nc2cccc(F)c2)CCC1,98 to 100 °C
16,Cc1ccc(Oc2ccc(-c3nnc(N)o3)cc2)c(O)c1,181 to 183 °C
17,CC(C)CCCC(C)CC(=O)Oc1ccc(-c2ccc(OC(=O)CC(C)CCCC(C)C)cc2)cc1 (stereo not given),72 to 73 °C
18,CCOC(=O)C1=C(COCc2ccc(CN3CCOCC3)o2)NC(C)=C(C(=O)OC)C1c1ccccc1Cl (stereo not given),85 to 87 °C
19,Cc1cccc2nc(CSc3ncnc4[nH]cnc34)n(-c3ccccc3F)c(=O)c12,152 °C
20,CC(=O)Nc1c(C(=O)c2cc(CO)ccn2)[nH]c2cc(Cl)ccc12,216 to 218 °C
21,CCOC(=O)C1CCC(c2ccccc2)n2c(=O)n(CCl)c(=O)n21 (stereo not given),104 to 106 °C
